The test system of one series is lung cancer (A549) cells. Nature of the series: MTT dose response cytotoxicity, A549. Particulars: Homo sapiens, 48 h. Format: cell-based. The method, then:
(§1) Cells were seeded as described in above. […] The medium was aspirated and replaced with 200 μL fresh medium containing the dilution of the respective test compound. The test sample were added to each well and the plates were incubated for a further 48 h at 37 °C under 5% CO2 atmosphere in a humidified incubator. After this incubation period, the medium was removed and then replaced with 100 μL fresh culture medium containing MTT at a final concentration of 0.5 mg/mL. The 96-well plates were returned to the incubator and incubated for an additional 3 h. The medium was removed and the MTT crystals were solubilized in 100 μL DMSO and the absorbance was measured at 560 nm using a Labsystems Multiwell Scanning spectrophotometer (Thermo Fischer Scientific, Edenvale, South Africa).
(§2) Quantification of live and dead cells for the screening assay was performed using the ImageXpress Micro XLS Widefield Microscope and acquired images analysed using the MetaXpress software and Multi-Wavelength Cell Scoring Application Module. Acquired data was transferred to an EXCEL spreadsheet and relative cell viability was determined using quadruplicate wells for each concentration. Untreated cells were considered to have 100% cell viability (i.e., the mean OD of the untreated wells = 100% viability). Cell viabilities in other test wells were calculated relative to the untreated control and expressed as a percentage. Dose response analysis was performed using the statistical software GraphPad Prism and IC50 values calculated from the concentration-response data using a mathematical Hill function.

In series [1] the test system is cervical cancer (HeLa) cells. Nature of the series: MTT dose response cytotoxicity, HeLa. Type of series: cell-based. The note with it: Homo sapiens, 48 h. The method, then:
as §1, §2

Another series concerns A549 cancer cells. As to the kind of experiment: Two-concentration cytotoxicity screen (Hoechst 33342/PI imaging), A549. Type of series: cell-based. The note with it: 10 μM and 100 μM, 48 h. The protocol: (§3) The HeLa and A549 cancer cells were initially exposed to two concentrations of each test compound (10 μM and 100 μM) for 48 h with a well-known chemotherapeutic drug, Melphalan, used as a reference standard at the same concentrations (Table 2 and Table 3). Acquisition was performed using the ImageXpress Micro XLS Widefield Microscope and the acquired images were analyzed using the MetaXpress software and Multi-Wavelength Cell Scoring Application Module (see Figure S2 in the Supplementary Information for cell viability percentages for each compound). The structure activity relationship (SAR) of these compounds has been evaluated with respect to the substitution patterns on the 2-phenyl ring, C-3 and C-7 positions.
(§4) The human cervical cancer cell line, HeLa, and lung cancer cell line, A549 were used for the screening assay. HeLa cells were grown and maintained in RPMI 1640 medium supplemented with 10% fetal bovine serum (FBS) and A549 cells were grown and maintained in EMEM supplemented with 10% FBS and 10% non-essential amino acids. In the case of screening experiments, the cells were seeded into 96 well microtiter plates at a density of 6000 cells/well to a total volume of 200 μL per well. The microtiter plates were incubated at 37 °C, 5% CO2, and 100% relative humidity for 24 h to allow for cell attachment. Each of the test compounds was first reconstituted in DMSO at a concentration of 40 mM and then stored at 4 °C prior to use and final dilution to working concentrations with culture complete medium on the day of treatment. Two hundred microliters aliquots of the diluted compound in fresh medium was used to treat cells after aspiration of seeding medium. Each of the cell lines was incubated for 48 h at 37 °C in a humidified incubator under 5% CO2 atmosphere. Treatment medium was aspirated from all wells and replaced with 100 μL of Hoechst 33342 nuclear dye (5 μg/mL) and incubated for 10 min at room temperature. Thereafter, cells were stained with propidium iodide (PI) at 100 μg/mL in order to enumerate the proportion of dead cells within the population. […]
as §2, with “Untreated cells were considered to have 100% cell viability (i.e., the mean OD of the untreated wells = 100% viability).” left out

The test system of a further series is HeLa cancer cells. As to the kind of experiment: Two-concentration cytotoxicity screen (Hoechst 33342/PI imaging), HeLa. Type of series: cell-based. Particulars: 10 μM and 100 μM, 48 h. The method, then:
as §3, §4
as §2, with “Untreated cells were considered to have 100% cell viability (i.e., the mean OD of the untreated wells = 100% viability).” left out

In the next series the test system is HeLa cells. As to the kind of experiment: Caspase 8 and 3 activation (immunochemical), HeLa. The note with it: 24 h exposure at IC50 values. Format: cell-based, human. The method, then:
(§5) Several distinctive mechanisms of cancer cell death such as apoptosis, necrosis, autophagy and cornification have been identified, and these are characterized by differences in morphology and biochemical changes. A major biochemical feature of apoptosis is the activation of caspases, which plays a central role in the morphological changes associated with apoptosis. Caspase activation was determined using immunochemical methods and the antibodies against activated caspase 8 and caspase 3. […] Activated caspase 8 can be used as a convenient indicator of involvement of the extrinsic death receptor pathway of apoptosis. Executioner caspases including caspase 3 are, in turn, activated by the initiator caspases. This protein is either partially or totally responsible for the cleavage of many key proteins such as PARP, DNA protein kinases and retinoblastoma protein [25]. […] This was true for both activated caspase 8 and 3. A more distinct increase was evident with caspase 3 albeit less pronounced than that of 4c and the increase was expected as caspase 3 is activated by initiator caspase including caspase 8, which is a later event in apoptosis. […] Prolonged treatment of the cells with compounds 5e–h for 48 h or more, for example, would probably result in significant effects. We also evaluated compound 5g for potential to induce other key apoptotic biochemical features such as phosphatidylserine (PS) translocation, cell cycle arrest and mitochondrial membrane depolarization.
(§6) Compounds 4c and 5g were selected for mechanism studies and these test compounds were reconstituted in dimethyl sulphoxide (DMSO) to give a final concentration of 40 mM. Samples were stored at 4 °C until required. […]
(§7) Quantification of live and dead cells for the assay was performed using the ImageXpress Micro XLS Widefield Microscope and acquired images analysed using the MetaXpress software and Multi-Wavelength Cell Scoring Application Module and the Cell Cycle Module. Acquired data was transferred to an EXCEL spreadsheet and data was analysed and processed.

A further series deals with A549 cells. Nature of the series: Caspase 8 and 3 activation (immunochemical), A549. Format: cell-based, human. The note with it: 24 h exposure at IC50 values. The protocol: as §5, §6, §7

Bounds are passed on as bounds.

The term IC50 denotes the point on the concentration scale where inhibition reaches its midpoint. Higher therefore signals a need for much substance. The term melting point denotes the temperature, or range, at which the solid turns liquid.

Turning to `CC(=O)c1cc(Br)cc2cc(-c3ccccc3)[nH]c12` [Compound 2a, 1-(5-Bromo-2-phenyl-1H-indol-7-yl)ethanone], the melting point is 139 to 142 °C. The compound further gave an IC50 in the series with lung cancer (A549) cells of over 200 µM. In series [1], this compound gave an IC50 of over 200 µM.
With `CC(=O)c1cc(Br)cc2cc(-c3ccc(F)cc3)[nH]c12` [Compound 2b, 1-[5-Bromo-2-(4-fluorophenyl)-1H-indol-7-yl]ethanone], the melting point was in the range of 171 to 173 °C. The same compound registered an IC50 with lung cancer (A549) cells of over 200 µM. Further, in series [1], the IC50 is over 200 µM.
`CC(=O)c1cc(Br)cc2cc(-c3cccc(Cl)c3)[nH]c12` [Compound 2c, 1-[5-Bromo-2-(3-chlorophenyl)-1H-indol-7-yl]ethanone] showed a melting point of 140 to 143 °C. Moreover, in the series on lung cancer (A549) cells, the IC50 is over 200 µM. In addition, the IC50 in series [1] is over 200 µM.
The compound `COc1ccc(-c2cc3cc(Br)cc(C(C)=O)c3[nH]2)cc1` [Compound 2d, 1-[5-Bromo-2-(4-methoxyphenyl)-1H-indol-7-yl]ethanone] showed a melting point of 140 to 142 °C. Further, the IC50 in the series on lung cancer (A549) cells was over 200 µM. Also, the IC50 in series [1] was over 200 µM.
For `CC(=O)Nc1cc(Br)cc2cc(-c3ccccc3)[nH]c12` [Compound 4a, N-(5-Bromo-2-phenyl-1H-indol-7-yl)acetamide], the IC50 (in the series on lung cancer (A549) cells; in series [1]) was over 200 µM in each case. In addition, the “Cytotoxicity (percentage live cells compared to untreated control)” value in the series with A549 cancer cells and with HeLa cancer cells was “Lack of cytotoxicity” in each case.
Take `CC(=O)Nc1cc(Br)cc2cc(-c3ccc(F)cc3)[nH]c12` [Compound 4b, N-[5-Bromo-2-(4-fluorophenyl)-1H-indol-7-yl]acetamide]: the IC50 worked out at 116.2 ± 0.78 µM in the series with lung cancer (A549) cells and 122.4 ± 1.02 µM in series [1]. The “Cytotoxicity (percentage live cells compared to untreated control)” value with A549 cancer cells and in the series with HeLa cancer cells was “modest cytotoxicity” in each case.
Regarding `CC(=O)Nc1cc(Br)cc2cc(-c3cccc(Cl)c3)[nH]c12` [Compound 4c, N-(5-Bromo-2-(3-chlorophenyl)-1H-indol-7-yl)acetamide], the IC50 in the series with lung cancer (A549) cells was found to be 154.6 ± 0.9 µM; in series [1] it was 126.9 ± 1 µM. Besides, the “Cytotoxicity (percentage live cells compared to untreated control)” value with A549 cancer cells and in the series with HeLa cancer cells was “modest cytotoxicity” in each case. In addition, the “Caspase 8 and 3 activation (% change in mean integrated fluorescence intensity of the untreated control)” value in the series with HeLa cells and in the series on A549 cells was “clear increases” in each case.
For `COc1ccc(-c2cc3cc(Br)cc(NC(C)=O)c3[nH]2)cc1` [Compound 4d, N-[5-Bromo-2-(4-methoxyphenyl)-1H-indol-7-yl]acetamide], the IC50 in the series with lung cancer (A549) cells turned out to be 146.8 ± 1 µM; in series [1], 125 ± 0.88 µM. The “Cytotoxicity (percentage live cells compared to untreated control)” value with A549 cancer cells and in the series on HeLa cancer cells was “modest cytotoxicity” throughout.
In turn, `CC(=O)c1cc(Br)cc2c(C(=O)C(F)(F)F)c(-c3ccccc3)[nH]c12` [Compound 5a, 1-(7-Acetyl-5-bromo-2-phenyl-1H-indol-3-yl)-2,2,2-trifluoroethanone] registered a melting point of 175 to 176 °C. Besides, the IC50 with lung cancer (A549) cells was over 200 µM. Further, the IC50 in series [1] is over 200 µM.
With `CC(=O)c1cc(Br)cc2c(C(=O)C(F)(F)F)c(-c3ccc(F)cc3)[nH]c12` [Compound 5b, 1-[7-Acetyl-5-bromo-2-(4-fluorophenyl)-1H-indol-3-yl]-2,2,2-trifluoroethanone], the melting point was 168 to 171 °C. In the series with lung cancer (A549) cells, this compound showed an IC50 of over 200 µM. In series [1], this compound returned an IC50 of over 200 µM.
In the case of `CC(=O)c1cc(Br)cc2c(C(=O)C(F)(F)F)c(-c3cccc(Cl)c3)[nH]c12` [Compound 5c, 1-[7-Acetyl-5-bromo-2-(3-chlorophenyl)-1H-indol-3-yl]-2,2,2-trifluoroethanone], the melting point is 138 to 141 °C. In the series on lung cancer (A549) cells, this compound came in with an IC50 of over 200 µM. Besides, the IC50 in series [1] was over 200 µM.
As to `COc1ccc(-c2[nH]c3c(C(C)=O)cc(Br)cc3c2C(=O)C(F)(F)F)cc1` [Compound 5d, 1-[7-Acetyl-5-bromo-2-(4-methoxyphenyl)-1H-indol-3-yl]-2,2,2-trifluoroethanone], the melting point was in the range of 170 to 173 °C. The compound also showed an IC50 in the series with lung cancer (A549) cells of over 200 µM. This compound also gave an IC50 in series [1] of over 200 µM.
In the case of `CC(=O)Nc1cc(Br)cc2c(C(=O)C(F)(F)F)c(-c3ccccc3)[nH]c12` [Compound 5e, N-[5-Bromo-2-phenyl-3-trifluoroacetyl-1H-indol-7-yl]acetamide], the melting point lay in the range of 141 to 144 °C. For the same compound, the IC50 in the series with lung cancer (A549) cells amounted to 9.94 ± 0.99 µM. Further, 12.9 ± 1.11 µM corresponded to half-maximal inhibition in series [1] (IC50).
For `CC(=O)Nc1cc(Br)cc2c(C(=O)C(F)(F)F)c(-c3ccc(F)cc3)[nH]c12` [Compound 5f, N-[5-Bromo-2-(4-fluorophenyl)-3-trifluoroacetyl-1H-indol-7-yl]acetamide], in that order: 195 to 197 °C, 5.03 ± 0.71 µM and 7.95 ± 0.9 µM.
As to `COc1ccc(-c2[nH]c3c(NC(C)=O)cc(Br)cc3c2C(=O)C(F)(F)F)cc1` [Compound 5h, N-[5-Bromo-2-(4-methoxyphenyl)-3-trifluoroacetyl-1H-indol-7-yl]acetamide], the melting point lay within 179 to 182 °C. Moreover, the IC50 in the series on lung cancer (A549) cells turned out to be 3.26 ± 0.51 µM. For the same compound, 10.7 ± 1.03 µM corresponded to half-maximal inhibition in series [1] (IC50).
As to `N[C@@H](Cc1ccc(N(CCCl)CCCl)cc1)C(=O)O` [Melphalan, reference compound], the IC50 with lung cancer (A549) cells is 30.7 ± 0.76 µM; in series [1], 37.16 ± 0.22 µM. Further, the “Caspase 8 and 3 activation (% change in mean integrated fluorescence intensity of the untreated control)” value in the series on HeLa cells and in the series on A549 cells was “clear increases” each time.
